Entries after “also recorded” stand apart in the source; their conditions may differ.

Holding throughout (assay type): in vivo
For assay [1], the system named is nutritive obesity C57 mice. In words: Weight loss experiment in nutritive obesity C57 mice. On the set-up: key to body weight of mice: body weight in g. The note with it: for body weight of mice: high-fat diet, orlistat 40 mg/kg, Compounds 13 and 14 80 mg/kg intragastric, x ± s, n = 6. The text has this: C57 mice, male, 18-20 g of body weight. The mice were randomly divided into Control group, Model group, Orlistat group, Compound 13 group and Compound 14 group, with 6 mice in each group.
(§1) appropriate amounts of orlistat, Compound 13 and Compound 14 were weighed respectively, added with 0.5% CMC-Na and grinded to dissolve.
The mice in Control group were fed with normal diet, and the other mice were fed with high-fat diet. All of the mice had free access to water. After one week of feeding, the pharmaceuticals were intragastrically administrated. The dose was 40 mg/kg body weight for orlistat, 80 mg/kg for Compounds 13 and 14. The body weight of the mice was weighed every week during the experiment which lasted for 28 days.

The subject of assay [2] is fatty liver of the SD rats. The assay can be described thus: Pathological sections and grading of fatty liver of SD rats. The settings on record: compounds 80 mg/kg, Sim 10 mg/kg, OCA 10 mg/kg. The essentials:
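Male SD rats weighing 180-200 g were acclimatized for 7 days and then given a lipid emulsion intragastrically every day at 1 ml/100 g body weight for 14 days to induce fatty liver. The emulsion contained lard oil, cholesterol, propylthiouracil, Tween 80, 1,2-propanediol and sodium deoxycholate. Dosing of the lipid emulsion continued while treated groups also received pharmaceuticals suspended in 0.5% CMC-Na for 14 days.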

Another assay concerns ob/ob mice. In words: Weight loss experiment in ob/ob mice. The settings on record: for body weight of ob/ob mice: orlistat 40 mg/kg, other pharmaceuticals 80 mg/kg intragastric, x ± s, n = 6.
Source text: […] ob/ob mice, male, 18-20 g of body weight, fed adaptively for one week before use. The mice were randomly divided into Control group, Model group, Orlistat group, Compound 13 group and Compound 14 group, with 6 mice in each group.
as §1
After feeding for one week, the mice were intragastrically administrated with the pharmaceuticals except the mice of Control group. The dose was 40 mg/kg body weight for orlistat, 80 mg/kg for the other pharmaceuticals. The body weight of the mice was weighed every week during the experiment which lasted for 28 days.

Setting [3] is: Experiment Day 0, in g (unit assumed).
The mark [4] stands for this setting: Experiment Day 7, in g (unit assumed).
The mark [5] stands for this setting: Experiment Day 14, in g (unit assumed).
The mark [6] stands for this setting: Experiment Day 21, in g (unit assumed).

For the compound `CC(=O)c1ccc(O)c(OC(=O)C(C)(C)CCCOc2cc(C)ccc2C)c1` [Compound 13], the “body weight of mice” value turned out to be 17.20 ± 1.92 in assay [1] (setting [3]); 19.97 ± 0.57 in assay [1] (setting [4]); 21.04 ± 0.29 in assay [1] (setting [5]); 22.14 ± 0.31 in assay [1] (setting [6]); 23.25 ± 0.26 in assay [1] (Experiment Day 28). The “effect on body weight compared with Orlistat (in words)” value in assay [1] (nutritive obesity C57 mice, 80 mg/kg vs orlistat 40 mg/kg) is “better effect than Orlistat”; in the assay with ob/ob mice (ob/ob mice, 80 mg/kg vs orlistat 40 mg/kg), “better effect than Orlistat”. Further, the “effect on body weight (in words)” value was “obvious effects on weight loss; also recorded: significantly decrease the body weight of the mice from Day 14” in assay [1] (nutritive obesity C57 mice, 80 mg/kg, as compared with Model group, 80 mg/kg) and “obvious effects on weight loss; also recorded: significantly decrease the body weight of the ob/ob mice” in the assay with ob/ob mice (ob/ob mice, 80 mg/kg, as compared with Model group, 80 mg/kg). In addition, the “Pathological grading: Steatotic hepatocytes” value in assay [2] (animal 1) is listed as “+ (25-45% of hepatocytes undergoing steatosis)”; in assay [2] (animal 2) it was “++ (45-65% of hepatocytes undergoing steatosis)”; in assay [2] (animal 3), “+ (25-45% of hepatocytes undergoing steatosis)”; in assay [2] (animal 4) it was “++ (45-65% of hepatocytes undergoing steatosis)”; in assay [2] (animal 5), “++ (45-65% of hepatocytes undergoing steatosis)”. The “body weight of ob/ob mice” value turned out to be 20.74 ± 1.10 in the assay with ob/ob mice (setting [3]); 21.43 ± 0.61 with ob/ob mice (setting [4]); 22.10 ± 0.16 in the assay with ob/ob mice (setting [5]); 24.53 ± 1.76 in the assay on ob/ob mice (setting [6]); 26.10 ± 1.95 with ob/ob mice (Experiment Day 28).
